# From ChEMBL document CHEMBL1146098, “Synthesis and characterization of 3-arylquinazolinone and 3-arylquinazolinethione derivatives as selective estrogen receptor beta modulators” (J Med Chem, 2006)
# Columns and labels:
# [1] = molecular target: T1, Estrogen receptor (Homo sapiens, UniProt P03372)
# T1 sequence (P03372 whole entry): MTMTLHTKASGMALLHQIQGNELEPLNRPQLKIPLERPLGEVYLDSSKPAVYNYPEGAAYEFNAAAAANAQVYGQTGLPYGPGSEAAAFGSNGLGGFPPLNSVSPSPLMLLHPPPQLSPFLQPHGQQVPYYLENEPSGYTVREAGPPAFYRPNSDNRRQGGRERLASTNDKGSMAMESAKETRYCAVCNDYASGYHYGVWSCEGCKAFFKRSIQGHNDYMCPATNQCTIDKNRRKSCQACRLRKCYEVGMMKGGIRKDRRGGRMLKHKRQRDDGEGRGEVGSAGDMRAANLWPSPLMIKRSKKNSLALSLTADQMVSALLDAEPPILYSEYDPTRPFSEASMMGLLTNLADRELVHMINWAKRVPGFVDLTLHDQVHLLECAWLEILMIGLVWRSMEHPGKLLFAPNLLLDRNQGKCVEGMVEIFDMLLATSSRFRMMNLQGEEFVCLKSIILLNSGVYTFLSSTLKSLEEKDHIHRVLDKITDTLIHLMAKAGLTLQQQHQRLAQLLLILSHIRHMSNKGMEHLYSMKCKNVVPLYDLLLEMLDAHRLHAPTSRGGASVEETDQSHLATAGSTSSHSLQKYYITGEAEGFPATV
# Description: Displacement of [3H]estrone from ER alpha
# [2] = molecular target: T2, Estrogen receptor beta (Homo sapiens, UniProt Q92731)
# [3] = molecular target: T2, Estrogen receptor beta; remark: listed apart in the source
# Description: Inhibition of ER beta-mediated transactivation of ERE in HeLa cell luciferase assay
# T2 sequence (Q92731 whole entry): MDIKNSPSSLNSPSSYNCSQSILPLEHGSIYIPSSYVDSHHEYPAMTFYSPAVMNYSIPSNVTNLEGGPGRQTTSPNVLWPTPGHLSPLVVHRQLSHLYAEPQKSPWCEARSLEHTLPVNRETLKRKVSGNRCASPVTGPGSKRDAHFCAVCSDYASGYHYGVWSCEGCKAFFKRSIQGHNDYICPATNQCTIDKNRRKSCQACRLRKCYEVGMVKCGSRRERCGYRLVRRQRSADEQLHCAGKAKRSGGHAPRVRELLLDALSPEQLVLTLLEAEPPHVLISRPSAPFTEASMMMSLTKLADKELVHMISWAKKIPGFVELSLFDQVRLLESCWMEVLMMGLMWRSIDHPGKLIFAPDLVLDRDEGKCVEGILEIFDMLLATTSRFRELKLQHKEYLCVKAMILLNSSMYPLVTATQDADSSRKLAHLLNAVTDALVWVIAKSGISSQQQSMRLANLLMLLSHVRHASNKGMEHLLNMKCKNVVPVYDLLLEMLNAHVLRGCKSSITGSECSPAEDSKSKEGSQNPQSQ
SMILES,IC50 [1],IC50 [2],EC50 [3]
O=c1c2c(O)cc(O)cc2[nH]c(=S)n1-c1ccc(O)cc1,11.1 µM,6.99 µM,1.99 µM
CCCc1nc2cc(O)cc(O)c2c(=O)n1-c1ccc(O)cc1,5.36 µM,3.22 µM,–
O=c1c2c(O)cc(O)cc2ncn1-c1cccc(O)c1,43.8 µM,3.84 µM,0.904 µM
O=c1c2ccc(O)cc2nc(-c2ccc(O)cc2)n1-c1ccc(O)cc1,48.5 µM,441 µM,–
O=c1c2ccc(O)cc2ncn1-c1ccc(O)cc1,53.6 µM,8.61 µM,0.961 µM
CCOc1cc(O)cc2ncn(-c3ccc(O)cc3)c(=O)c12,–,44.3 µM,–
Oc1ccc(-n2cnc3cc(O)cc(O)c3c2=S)cc1,2.64 µM,0.047 µM,0.013 µM
O=c1c2c(O)cc(O)cc2ncn1-c1ccc(O)c(Cl)c1,55 µM,7.21 µM,1.18 µM
COC(=O)c1cc(O)cc2ncn(-c3ccc(O)cc3)c(=O)c12,81.3 µM,9.54 µM,9.41 µM
Cc1cc(O)ccc1-n1cnc2cc(O)cc(O)c2c1=O,4.38 µM,0.422 µM,0.111 µM
O=c1c2c(O)cc(O)cc2ncn1-c1ccc(O)nc1,66.9 µM,51.7 µM,9.76 µM
CCc1cc(O)cc2ncn(-c3ccc(O)cc3)c(=O)c12,13.2 µM,0.265 µM,0.062 µM
Cc1cc(O)cc2ncn(-c3ccc(O)cc3)c(=O)c12,9.63 µM,0.317 µM,0.136 µM
O=c1c2c(O)cc(O)cc2ncn1-c1ccc(O)cc1,11.1 µM,0.179 µM,0.076 µM
Cc1cc(-n2cnc3cc(O)cc(O)c3c2=S)ccc1O,2.85 µM,0.658 µM,0.16 µM
O=c1c2c(O)cc(O)cc2ncn1-c1ccc(O)cc1Cl,6.25 µM,0.263 µM,0.251 µM
Cc1nc2cc(O)cc(O)c2c(=O)n1-c1ccc(O)cc1,33.2 µM,11.4 µM,1.58 µM
Cc1cc(O)cc2ncn(-c3ccc(O)cc3)c(=S)c12,1.75 µM,0.079 µM,0.222 µM
COc1cc(O)c2c(=O)n(-c3ccc(O)cc3)cnc2c1,26 µM,9.53 µM,8.51 µM
O=c1c2c(OS(=O)(=O)C(F)(F)F)cc(O)cc2ncn1-c1ccc(O)cc1,–,12 µM,3.8 µM
O=c1c2c(O)c(I)c(O)cc2ncn1-c1ccc(O)cc1,–,3.97 µM,1.64 µM
O=c1c2c(O)cc(O)cc2ncn1-c1ccc(O)c(F)c1,44.2 µM,0.65 µM,0.117 µM
CCc1cc(O)cc2ncn(-c3ccc(O)cc3)c(=S)c12,2.26 µM,0.156 µM,0.053 µM
O=c1[nH]c2cc(O)cc(O)c2c(=O)n1-c1ccc(O)cc1,70.3 µM,9.38 µM,1.31 µM

SMILES,IC50 [1],IC50 [2],EC50 [3]
O=c1c2c(O)c(I)c(O)c(I)c2ncn1-c1ccc(O)cc1,–,12.3 µM,1.97 µM
CC(C)c1nc2cc(O)cc(O)c2c(=O)n1-c1ccc(O)cc1,70.4 µM,48.1 µM,–
O=c1c2c(O)cc(O)cc2ncn1-c1ccc(O)cc1F,7.48 µM,0.256 µM,0.19 µM
COc1cc(O)cc2ncn(-c3ccc(O)cc3)c(=O)c12,–,–,8.51 µM
O=c1c2c(O)cc(O)cc2ncn1-c1ccccc1,75.6 µM,18.5 µM,1.72 µM
CCc1nc2cc(O)cc(O)c2c(=O)n1-c1ccc(O)cc1,19.4 µM,5.75 µM,1.26 µM
C=Cc1cc(O)cc2ncn(-c3ccc(O)cc3)c(=O)c12,–,17 µM,0.75 µM
O=c1c2c(O)cc(O)cc2ncn1-c1ccc(O)cn1,98 µM,3.53 µM,0.358 µM
COc1cc(O)c2c(=O)n(-c3ccc(O)cc3)c(=S)[nH]c2c1,–,72.8 µM,3.84 µM
Oc1ccc(-n2cnc3cc(O)cc(O)c3c2=S)nc1,27.6 µM,0.515 µM,0.173 µM
C=C(C)c1cc(O)cc2ncn(-c3ccc(O)cc3)c(=O)c12,44 µM,2.3 µM,0.729 µM
O=c1c2c(-c3ccccc3)cc(O)cc2ncn1-c1ccc(O)cc1,102 µM,30.7 µM,11.7 µM
Nc1cc(O)cc2ncn(-c3ccc(O)cc3)c(=O)c12,15.5 µM,8.24 µM,2.06 µM
COC(=O)c1cc(OC(C)=O)cc2ncn(-c3ccc(OC(C)=O)cc3)c(=S)c12,–,–,11.3 µM
N#Cc1cc(O)cc2ncn(-c3ccc(O)cc3)c(=O)c12,–,73.7 µM,7.58 µM
CCCCc1nc2cc(O)cc(O)c2c(=O)n1-c1ccc(O)cc1,0.178 µM,0.249 µM,–
CCCc1c(O)cc2ncn(-c3ccc(O)cc3)c(=O)c2c1O,10.6 µM,7.3 µM,–
Oc1cc(O)c2c(=S)n(-c3ccc(O)c(F)c3)cnc2c1,3.08 µM,0.102 µM,0.02 µM
Cc1cc(-n2cnc3cc(O)cc(O)c3c2=O)ccc1O,34.6 µM,7.49 µM,1.25 µM
Oc1ccc(-c2coc3cc(O)cc(O)c3c2=S)cc1 [THIOGENISTEIN],55.9 µM,1.34 µM,0.014 µM
O=c1c2c(O)cc(O)cc2nc(Cl)n1-c1ccc(O)cc1,–,13.4 µM,8.78 µM
Cc1c(O)cc(O)c2c(=O)n(-c3ccc(O)cc3)cnc12,15.3 µM,1.27 µM,8.87 µM
O=c1c2c(CO)cc(O)cc2ncn1-c1ccc(O)cc1,0.121 µM,0.024 µM,4.46 µM
O=c1c2c(O)cc(O)c(I)c2ncn1-c1ccc(O)cc1,–,4.08 µM,0.593 µM
